Test results: US20240092835A1, “NOVEL PEPTIDES CAPABLE OF ALTERING NK CELL ACTIVITY” (Massachusetts Institute of Technology, priority 2022, published 2024)
Entries after “also recorded” stand apart in the source; their conditions may differ. Where no end group is shown, it is not given here.

Key:
[1] = test system: NKG2A+/NKG2C− NK cells; assay: NK cell activation markers in NKG2A+/NKG2C- NK cells incubated with peptide and K562 expressing HLA-E (inhibition); format: cell-based, human; details: for effect on NKG2A+/NKG2C− NK cell inhibition (in words): K562 expressing HLA-E, CD107a, IFNG, TNF, CCL3; for percentage of CCL3+ NK cells / percentage of CD107a+ NK cells / percentage of IFNG+ NK cells / percentage of TNF+ NK cells: NKG2A+/NKG2C- NK cells, K562/HLA-E
Summary of the method: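 Percent of NK cells positive for cell-surface markers was measured after exposure to K562 targets expressing HLA-E and loaded with human- or HCMV-proteome-derived peptides. A decrease means inhibition, an increase activation; NKG2A−/NKG2C− cells served as controls.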

[2] = target: T1, HLA-E (Homo sapiens, UniProt P13747); assay: HLA-E surface stabilization assay with RMA-S/HLA-E cells; format: cell-based; details: 30 μM peptide, 16 hours; for HLA-E surface expression stability (GeoMFI): anti-HLA-E antibody; for HLA-E surface expression stabilization strength, approximate GeoMFI: approximate value
T1 construct: expressed in transfected cells; host or cells: RMA-S/HLA-E cells (antigen processing-defective lymphoma cell line)
Experimental: HLA-E surface expression was assessed by measuring geometric mean fluorescence intensity (GeoMFI) in RMA-S cells following immunofluorescence staining with an anti-HLA-E antibody (Table 14). Increased GeoMFI was indicative of increased HLA-E surface expression stability following novel peptide exposures (FIG. 3).

T1 sequence (P13747 22-358): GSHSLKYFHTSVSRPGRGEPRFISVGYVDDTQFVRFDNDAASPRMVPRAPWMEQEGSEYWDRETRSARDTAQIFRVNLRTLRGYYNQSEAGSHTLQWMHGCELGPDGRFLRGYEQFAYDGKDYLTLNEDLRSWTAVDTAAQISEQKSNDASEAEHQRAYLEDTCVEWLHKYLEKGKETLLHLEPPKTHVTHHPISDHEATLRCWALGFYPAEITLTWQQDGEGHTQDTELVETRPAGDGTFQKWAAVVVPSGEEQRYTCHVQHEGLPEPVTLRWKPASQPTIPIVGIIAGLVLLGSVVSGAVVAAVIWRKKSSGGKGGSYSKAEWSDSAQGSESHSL
T1 sequence (P61769 21-119 partner): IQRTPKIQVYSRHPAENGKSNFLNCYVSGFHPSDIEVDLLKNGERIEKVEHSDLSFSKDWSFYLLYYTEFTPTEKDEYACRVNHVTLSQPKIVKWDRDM

| Sequence | percentage of CCL3+ NK cells ([1]; Trial 1) [%] | percentage of CD107a+ NK cells ([1]; Trial 1) [%] | percentage of IFNG+ NK cells ([1]; Trial 1) [%] | percentage of TNF+ NK cells ([1]; Trial 1) [%] | percentage of CCL3+ NK cells ([1]; Trial 2) [%] | percentage of CD107a+ NK cells ([1]; Trial 2) [%] | percentage of IFNG+ NK cells ([1]; Trial 2) [%] | percentage of TNF+ NK cells ([1]; Trial 2) [%] | percentage of CCL3+ NK cells ([1]; Trial 3) [%] | percentage of CD107a+ NK cells ([1]; Trial 3) [%] | percentage of IFNG+ NK cells ([1]; Trial 3) [%] | percentage of TNF+ NK cells ([1]; Trial 3) [%] | percentage of CCL3+ NK cells ([1]; Trial 4) [%] | percentage of CD107a+ NK cells ([1]; Trial 4) [%] | percentage of IFNG+ NK cells ([1]; Trial 4) [%] | percentage of TNF+ NK cells ([1]; Trial 4) [%] | percentage of CCL3+ NK cells ([1]; Trial 5) [%] | percentage of CD107a+ NK cells ([1]; Trial 5) [%] | percentage of IFNG+ NK cells ([1]; Trial 5) [%] | percentage of TNF+ NK cells ([1]; Trial 5) [%] | also measured |
| --- | --- | --- | --- | --- | --- | --- | --- | --- | --- | --- | --- | --- | --- | --- | --- | --- | --- | --- | --- | --- | --- |
| QMPSRSLLF [human1, QMPSRSLLF] | 31.8 | 15.3 | 4.26 | 1.66 | 47 | 25.7 | 9.68 | 3.94 | 28.8 | 28.5 | 15.5 | 9.23 | 14.2 | 14.6 | 3.06 | 2.61 | 25.5 | 9.4 | 2.48 | 1.56 | effect on NKG2A+/NKG2C− NK cell inhibition (in words) ([1]; listed as SEQ ID NO. 7): mild inhibitory effects; effect on NKG2A+/NKG2C− NK cell inhibition (in words) ([1]; listed as h1): mild inhibitory effects; also recorded: strong inhibitory; percentage of CCL3+ NK cells ([1]; Trial 6): 16.6%; percentage of CD107a+ NK cells ([1]; Trial 6): 13.3%; percentage of IFNG+ NK cells ([1]; Trial 6): 2.26%; percentage of TNF+ NK cells ([1]; Trial 6): 1.77%; HLA-E surface expression stabilization strength (in words) [2]: moderate; HLA-E surface expression stability (GeoMFI) ([2]; Trial 1): 2461 GeoMFI; HLA-E surface expression stability (GeoMFI) ([2]; Trial 2): 1755 GeoMFI; HLA-E surface expression stability (GeoMFI) ([2]; Trial 3): 2273 GeoMFI; HLA-E surface expression stability (GeoMFI) ([2]; Trial 4): 2496 GeoMFI; HLA-E surface expression stabilization strength, approximate GeoMFI [2]: approximately 2×10^3 GeoMFI |
| TAPARTMFL [human13, TAPARTMFL] | 52.5 | 31.2 | 13 | 3.99 | 75.9 | 50.6 | 30.8 | 13.8 | 52.6 | 44.4 | 31.7 | 17 | 47.3 | 37.6 | 21.7 | 12.6 | 48.9 | 32.2 | 16.9 | 7.45 | effect on NKG2A+/NKG2C− NK cell inhibition (in words) ([1]; listed as SEQ ID NO. 5): no or minimal effect; effect on NKG2A+/NKG2C− NK cell inhibition (in words) ([1]; listed as h13): no effect; percentage of CCL3+ NK cells ([1]; Trial 6): 39.3%; percentage of CD107a+ NK cells ([1]; Trial 6): 28.2%; percentage of IFNG+ NK cells ([1]; Trial 6): 8.81%; percentage of TNF+ NK cells ([1]; Trial 6): 5.68%; HLA-E surface expression stabilization strength (in words) [2]: lower; HLA-E surface expression stability (GeoMFI) ([2]; Trial 1): 851 GeoMFI; HLA-E surface expression stability (GeoMFI) ([2]; Trial 2): 887 GeoMFI; HLA-E surface expression stability (GeoMFI) ([2]; Trial 3): 673 GeoMFI; HLA-E surface expression stability (GeoMFI) ([2]; Trial 4): 1187 GeoMFI; HLA-E surface expression stabilization strength, approximate GeoMFI [2]: approximately 1×10^3 GeoMFI |
| TGPWRSLWI [human3, TGPWRSLWI] | 54.6 | 34.8 | 15.5 | 6.18 | 73.9 | 47.2 | 26.8 | 12.4 | 55.1 | 44.9 | 32.1 | 19.7 | 46.5 | 37.7 | 20.1 | 12.5 | 49.6 | 35.9 | 19.2 | 9.62 | effect on NKG2A+/NKG2C− NK cell inhibition (in words) ([1]; listed as SEQ ID NO. 2): no or minimal effect; effect on NKG2A+/NKG2C− NK cell inhibition (in words) ([1]; listed as h3): no effect; percentage of CCL3+ NK cells ([1]; Trial 6): 33.1%; percentage of CD107a+ NK cells ([1]; Trial 6): 25.7%; percentage of IFNG+ NK cells ([1]; Trial 6): 9.52%; percentage of TNF+ NK cells ([1]; Trial 6): 5.43%; HLA-E surface expression stability (GeoMFI) ([2]; Trial 1): 510 GeoMFI; HLA-E surface expression stability (GeoMFI) ([2]; Trial 2): 428 GeoMFI; HLA-E surface expression stability (GeoMFI) ([2]; Trial 3): 421 GeoMFI; HLA-E surface expression stability (GeoMFI) ([2]; Trial 4): 596 GeoMFI; HLA-E surface expression stabilization strength (in words) ([2]; listed as GTF3C5293-301): closest to the experimental negative control (DMSO); also recorded: lowest |
| TLPKRGLFL [human2, TLPKRGLFL] | 17.5 | 10.8 | 2.35 | 0.83 | 34.9 | 13 | 2.85 | 1.25 | 17.3 | 16.7 | 7.56 | 3.94 | 13.3 | 15.1 | 2.41 | 1.74 | 29.3 | 14.4 | 5.78 | 2.47 | effect on NKG2A+/NKG2C− NK cell inhibition (in words) [1]: mild inhibitory effects; percentage of CCL3+ NK cells ([1]; Trial 6): 16.2%; percentage of CD107a+ NK cells ([1]; Trial 6): 14%; percentage of IFNG+ NK cells ([1]; Trial 6): 3.48%; percentage of TNF+ NK cells ([1]; Trial 6): 2.18%; HLA-E surface expression stabilization strength (in words) [2]: moderate; HLA-E surface expression stability (GeoMFI) ([2]; Trial 1): 2019 GeoMFI; HLA-E surface expression stability (GeoMFI) ([2]; Trial 2): 2029 GeoMFI; HLA-E surface expression stability (GeoMFI) ([2]; Trial 3): 1731 GeoMFI; HLA-E surface expression stability (GeoMFI) ([2]; Trial 4): 2795 GeoMFI; HLA-E surface expression stabilization strength, approximate GeoMFI [2]: approximately 2×10^3 GeoMFI |
| VNPGRSLFL [human5, VNPGRSLFL] | 51.6 | 36.8 | 16.9 | 7.26 | 71.6 | 48.4 | 28.8 | 14.6 | 55.3 | 43.1 | 30.8 | 19.4 | 40.9 | 33.4 | 17.9 | 10.7 | 44.2 | 30.4 | 16.5 | 7.74 | effect on NKG2A+/NKG2C− NK cell inhibition (in words) ([1]; listed as SEQ ID NO. 3): no or minimal effect; effect on NKG2A+/NKG2C− NK cell inhibition (in words) ([1]; listed as h5): no effect; percentage of CCL3+ NK cells ([1]; Trial 6): 33.1%; percentage of CD107a+ NK cells ([1]; Trial 6): 26%; percentage of IFNG+ NK cells ([1]; Trial 6): 10.5%; percentage of TNF+ NK cells ([1]; Trial 6): 6.36%; HLA-E surface expression stability (GeoMFI) ([2]; Trial 1): 569 GeoMFI; HLA-E surface expression stability (GeoMFI) ([2]; Trial 2): 509 GeoMFI; HLA-E surface expression stability (GeoMFI) ([2]; Trial 3): 566 GeoMFI; HLA-E surface expression stability (GeoMFI) ([2]; Trial 4): 750 GeoMFI; HLA-E surface expression stabilization strength (in words) ([2]; listed as BFAR263-271): closest to the experimental negative control (DMSO); also recorded: lowest |
